According to patent US20230321064A1, “Products for Treating the JNCL Disease” (Beyond Batten Disease Foundation, priority 2020, published 2023):
Entries after “also recorded” stand apart in the source; their conditions may differ. Read-outs that look alike come from different tables or passages of the source.

Columns and labels:
[1] = system: human CLN3 disease NPC derived cortical neurons; assay: Glycosphingolipid and lysosomal storage in CLN3 patient iPSC/NPC derived cortical neurons; type: cell-based
[2] = system: CLN3 1kb mutant human fibroblasts; assay: Glycosphingolipid and lysosomal storage in CLN3 1 kb deletion mutant fibroblasts; type: cell-based
Cln3^Δex7-8 mice [3] = assay: Microglial activation, CD68 immunohistochemistry in brain sections; type: in vivo, mouse
Description: (§1) Cln3^Δex7-8 mice were obtained from the Jackson Laboratory. Control (C57BL/6J) and Cln3^Δex7-8 mice were housed 3-4 per cage in a room with a 12-h light/12-h dark cycle. Food and water were provided ad libitum. All mice used in this study were analyzed at 8 and 12 months of age and were littermates produced by crossing heterozygous Cln3^Δex7-8 mice. Only males were used for this analysis. Investigators were blinded when analyzing the data, and no randomization was necessary.
(§2) For oral administration, Trehalose was dissolved in drinking water to a final concentration of 2% and changed twice a week. Trehalose-containing water was given to Cln3^Δex7-8 mice and WT mice by spontaneous oral administration starting at 21 days of age and continuing until the day the mice were sacrificed for neuropathology studies.
(§3) Miglustat was administered in mixture with the food pellet starting at 21 days of age and continuing until the day the mice were sacrificed for neuropathology studies. Miglustat food was prepared by TestDiet using the 5V5R rodent diet (LabDiet). Two concentrations were used: 1.2 g/Kg chow (indicated as “low concentration”) and 7.2 g/Kg chow (indicated as “high concentration”) and two separate groups of Cln3^Δex7-8 mice were fed with either diet. One additional group of Cln3^Δex7-8 l mice was fed with a combination of the low-concentration Miglustat food and 2% Trehalose water.
(§4) Twelve-month-old homozygous Cln3^Δex7-8 mice and age-matched controls (WT mice) were anaesthetized with isoflurane and transcardially perfused with PBS followed by 4% buffered paraformaldehyde in 0.1 M sodium phosphate buffer, pH 7.4. Brains were subsequently removed and postfixed overnight. Before sectioning, the brains were cryoprotected in a solution containing 30% sucrose in Tris-buffered saline (TBS: 50 mM Tris, pH 7.6). Consecutive 40 μm floating coronal sections were collected in 96-well plates. Series of sections were then stained with primary antisera against CD68 (AbD
(§5) Serotec, Cat. No. MCA1957), GFAP (DAKO, Cat. No. Z0334), Subunit C of mitochondrial ATP synthase (SCMAS; Abcam, Cat. No. ab181243), or cleaved caspase 3 (Asp175) (Cell Signaling, Cat. No. 9661S) followed by either rabbit anti-rat (VectorLab) or swine anti-rabbit (DAKO) secondary antibodies, and immunoreactivity detected with Vectastain ABC (avidin-biotin) kit (Vector) and diaminobenzidine as a chromogen.
Non-overlapping images were captured, on three consecutive sections, through each region of interest. All RGB images were captured via a live video camera (JVC, 3CCD, KY-F55B), mounted onto a Zeiss Axioplan microscope using a x 40 objective and saved as JPEGs. All parameters including lamp intensity, video camera set-up and calibration were maintained constant throughout image capturing. For quantification of storage and inflammation, images were analyzed using ImageJ analysis software (NIH), using an appropriate threshold that selected the foreground immunoreactivity above background. This threshold was then applied as a constant to all subsequent images analyzed per batch of animals and reagent used to determine the specific area of immunoreactivity for each antigen in each region. […] For quantification of cell death, images were analyzed manually and scored for the presence of apoptotic nuclei. […]
(S1BF), the primary visual (V1) cortex, and the dorsolateral geniculate (DLG) (Pontikis et al., 2005). To quantify microglial activation, antibodies against the microglial marker CD68 were used. […]

[4] = cited from earlier work
[5] = system: cln3 morphant zebrafish embryos; assay: Glycosphingolipid/SCMAS storage and eye phenotype in cln3 morphant zebrafish embryos; type: in vivo; conditions: miglustat 300 μM from 4 hpf for 88 h
purified trehalase = assay: In vitro colorimetric trehalase assay (glucose generation, 340 nm); type: biochemical; conditions: in the presence of miglustat; 340 nm absorbance
Description: To this aim, an in vitro colorimetric assay was performed to measure the rate of generation of glucose, the product of trehalose hydrolysis by trehalase. In the absence of miglustat, trehalose was rapidly hydrolysed by purified trehalase, and the glucose produced could be quantified at 340 nm absorbance. In the test conditions, the amounts of glucose detected increased over time to reach a plateau in […].

Cln3^Δex7-8 mice [6] = assay: Astrocytosis, GFAP immunohistochemistry in brain sections; type: in vivo, mouse
Description: as §1, §2, §3, §4, §5
(§6) Non-overlapping images were captured, on three consecutive sections, through each region of interest. All RGB images were captured via a live video camera (JVC, 3CCD, KY-F55B), mounted onto a Zeiss Axioplan microscope using a x 40 objective and saved as JPEGs. All parameters including lamp intensity, video camera set-up and calibration were maintained constant throughout image capturing. For quantification of storage and inflammation, images were analyzed using ImageJ analysis software (NIH), using an appropriate threshold that selected the foreground immunoreactivity above background. This threshold was then applied as a constant to all subsequent images analyzed per batch of animals and reagent used to determine the specific area of immunoreactivity for each antigen in each region. Data were plotted graphically as the mean percentage area of immunoreactivity per field ±s.e.m. for each region. For quantification of cell death, images were analyzed manually and scored for the presence of apoptotic nuclei. Data were plotted graphically as the mean number of apoptotic cells per field ±s.e.m. for each region. All analyses were performed blind to genotype and treatment.
[…] was also quantified by performing immunohistochemistry staining of brain sections of all test and control mice using anti-GFAP antibodies.

Cln3^Δex7-8 mice [7] = assay: Lysosomal storage in cerebellum (SCMAS staining); type: in vivo, mouse; conditions: 12 months of age
Description: as §1
For oral administration, Trehalose was dissolved in drinking water to a final concentration of 2% and changed twice a week. […]
as §5
Non-overlapping images were captured, on three consecutive sections, through each region of interest. […] For quantification of storage and inflammation, images were analyzed using ImageJ analysis software (NIH), using an appropriate threshold that selected the foreground immunoreactivity above background. […]

Cln3^Δex7-8 mice [8] = assay: Neuronal cell death, cleaved caspase-3 immunohistology in brain sections; type: in vivo, mouse; conditions: for cell death (cleaved CAS-3) in the VPM/VPL region: 12 months of age, oral, 2% Trehalose in drinking water, Miglustat in chow (FIG. 1E)
Description: as §1, §2, §3, §4, §5
as §6, with “All analyses were performed blind to genotype and treatment.” left out

[9] = Miglustat 50 μM during the final week of differentiation

## CCCCN1C[C@H](O)[C@@H](O)[C@H](O)[C@H]1CO [Miglustat, (2R,3R,4R,5S)-1-butyl-2-(hydroxymethyl)piperidine-3,4,5-triol]
[1]; [9]
  excitotoxic glutamate induced Ca2+ signalling: normalisation of excitotoxic glutamate induced Ca^2+ signalling
  expansion of the lysosomal and autophagic vacuole systems (lysotracker and cytoID staining): reduction in expansion of the lysosomal and autophagic vacuole systems
  lipid and protein storage levels (globoside, ganglioside GM1, SCMAS): normalised; also recorded: reduced lipid and protein storage levels
  lipid localisation: normalisation of lipid localisation
[1]; Miglustat 50 μM, ionomycin/GPN, Fura 2,AM
  lysosomal Ca2+ content: normalisation of lysosomal Ca^2+ content
[2]; 50 μM miglustat
  accumulation of SCMAS: significantly reduced
  localisation of CtxB (ganglioside GM1): restores sub-plasma membrane localisation
  lysosomal inclusions by EM: notable absence of the dark membranous whorl-like inclusions
  peak CtxB fluorescence (confocal line scans): clearly reduces the peak CtxB fluorescence
  swollen mitochondria with abnormal cristae (electron microscopy): normalised
[2]; 50 μM miglustat for 5 days
  accumulating GSLs (ganglioside GM1 by CtxB, globosides Gb3/4 by SLxT): normalised; also recorded: significant reduction in the accumulating GSLs back to control levels
[2]; 50 μM miglustat, ionomycin/GPN, Fura 2,AM
  elevated lysosomal Ca2+: restored to healthy control levels
[2]; 50 μM miglustat, listed as miglustat
  localisation of CtxB (ganglioside GM1): normalisation in localisation of CtxB back to the plasma membrane
[2]; 50 μM miglustat, live cells
  autophagy (CytoID): normalisation in elevated autophagy
  expansion of the lysosomal system (lysotracker staining): normalisation in the visible expansion of the lysosomal system
Cln3^Δex7-8 mice [3]; FIG. 2A
  microglial activation (CD68) in the VPM/VPL: potently prevented microglial activation; also recorded: undistinguishable from WT mice
Cln3^Δex7-8 mice [3]; FIG. 2B
  microglial activation (CD68) in the DLG: significantly decreased microglial activation
Cln3^Δex7-8 mice [3]; low concentrations of Miglustat (1.2 g/Kg chow), FIG. 2E
  CD68 staining in the VPM/VPL: largely reduce CD68 staining
Cln3^Δex7-8 mice [3]; low concentrations of Miglustat, not shown
  CD68 staining in the cerebellum: partially or largely reduce CD68 staining
[4]; as a free base
  Solubility in water: (>1000 mg/mL as a free base).
[4]
  Solubility in water: Miglustat: Highly soluble in water
[5]
  fluorescence intensity of glycolipids and of lipofuscin associated SCMAS storage: normalised; also recorded: decrease, particularly in the brain, in fluorescence intensity
  ganglioside GM1 storage within the brain (CtxB line scans): reduced; also recorded: normalised
  retinal area: restored to wild-type levels
Purified trehalase
  trehalase-mediated hydrolysis of trehalose to glucose (glucose generated): only a minimal amount of glucose was generated
Cln3^Δex7-8 mice [6]; 12 months of age, oral, Miglustat even at low doses (FIG. 3E)
  astroglial activation (GFAP staining) in the VPM/VPL region: largely suppressed
Cln3^Δex7-8 mice [6]; FIG. 3A
  astrocytosis (GFAP immunoreactivity) in the VPM/VPL: undistinguishable from that of WT mice
Cln3^Δex7-8 mice [6]; FIG. 3B
  astrocytosis (GFAP immunoreactivity) in the DLG: prevented astrocytosis
Cln3^Δex7-8 mice [6]; FIG. 3C
  astrocytosis (GFAP) in the S1BF: reduction in astrocytosis, although this did not reach statistical significance
Cln3^Δex7-8 mice [7]
  increased storage in the cerebellum (SCMAS staining): no consistent effects
Cln3^Δex7-8 mice [8]
  cell death (cleaved CAS-3) in the VPM/VPL region: largely suppressed
Cln3^Δex7-8 mice [8]; listed as miglustat
  cell death (cleaved CAS-3) in the VPM/VPL region: prevented
Cln3^Δex7-8 mice [8]; regions analyzed: VPM/VPL, dLG, S1BF, V1 (FIGS. 1A-D), oral treatment
  programmed cell death (cleaved caspase-3 reactive cells): effective in abating programmed cell death
